Holding throughout (experiment): competitive isoTOP-ABPP
Type in all cases: binding

Test [1] has as its target T1, GSTT2B Glutathione S-transferase theta-2B (Homo sapiens, UniProt P0CG30).
T1 construct: isoTOP-ABPP experiments performed in cell lysates (in vitro); endogenous in cells; host or cells: MDA-MB-231 soluble lysate
T1 sequence (P0CG30 1-244): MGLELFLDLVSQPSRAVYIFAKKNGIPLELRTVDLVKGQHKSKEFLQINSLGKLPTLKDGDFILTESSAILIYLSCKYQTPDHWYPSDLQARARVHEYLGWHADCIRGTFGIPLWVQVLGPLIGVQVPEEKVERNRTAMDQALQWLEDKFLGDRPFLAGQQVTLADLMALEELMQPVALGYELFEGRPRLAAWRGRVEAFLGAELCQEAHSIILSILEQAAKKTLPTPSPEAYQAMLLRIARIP
To be noted: for R value (DMSO/fragment) for probe 1 labeling: P0CG30_K53; for R value (DMSO/fragment) for probe 1 labeling / isoTOP-ABPP reactivity ratio at lysine P0CG30_K53 / isoTOP-ABPP ratio (R) at liganded lysine P0CG30_K53: 50 uM, in vitro; for R value (DMSO/fragment) for probe 1 labeling / isoTOP-ABPP reactivity ratio at lysine P0CG30_K53: 231 sol; for isoTOP-ABPP ratio (R) at liganded lysine P0CG30_K53: sol, 231; for isoTOP-ABPP ratio, lysine P0CG30_K53: 50 uM_231_sol_in vitro. An outline of the steps: (§1)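 Readout: isotopic light/heavy MS1 peak-area ratio (R, DMSO heavy over compound light), median across peptides sharing a modified lysine. Lysate received fragment (activated esters 50 μM, guanidinylating agents 100 μM final) or DMSO, then 0.1 mM STP-alkyne probe for 1 h at ambient temperature.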

Test [2] concerns the target T2, PNPO Pyridoxine-5-phosphate oxidase (Homo sapiens, UniProt Q9NVS9).
T2 construct: endogenous in cells; host or cells: MDA-MB-231 (soluble fraction of lysate)
T2 sequence (Q9NVS9 1-261): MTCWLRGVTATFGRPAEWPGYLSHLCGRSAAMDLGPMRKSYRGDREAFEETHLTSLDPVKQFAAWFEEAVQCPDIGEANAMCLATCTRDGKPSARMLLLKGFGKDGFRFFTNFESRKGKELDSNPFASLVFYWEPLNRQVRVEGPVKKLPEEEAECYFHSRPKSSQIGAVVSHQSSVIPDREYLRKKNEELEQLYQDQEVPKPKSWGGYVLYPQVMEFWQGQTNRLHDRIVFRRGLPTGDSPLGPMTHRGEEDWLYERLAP
The settings on record: for blockade of probe 1 labeling of K100: PNPO K100; for R value (DMSO/fragment) for probe 1 labeling: Q9NVS9_K100; for R value (DMSO/fragment) for probe 1 labeling / isoTOP-ABPP reactivity ratio at lysine Q9NVS9_K100 / isoTOP-ABPP ratio (R) at liganded lysine Q9NVS9_K100: 50 uM, in vitro; for R value (DMSO/fragment) for probe 1 labeling / isoTOP-ABPP reactivity ratio at lysine Q9NVS9_K100: 231 sol; for isoTOP-ABPP ratio (R) at liganded lysine Q9NVS9_K100: sol, 231; for isoTOP-ABPP ratio, lysine Q9NVS9_K100: 50 uM_231_sol_in vitro. The essentials:
as §1

The target in test [3] is T3, HNRNPK Heterogeneous nuclear ribonucleoprotein K (Homo sapiens, UniProt P61978).
T3 construct: isoTOP-ABPP experiments performed in cell lysates (in vitro); endogenous in cells; host or cells: soluble proteome of human cancer cell lines (MDA-MB-231, Ramos, Jurkat)
The settings on record: 50 uM, in vitro; for R value (DMSO/fragment) for probe 1 labeling: P61978_K405; for R value (DMSO/fragment) for probe 1 labeling / isoTOP-ABPP reactivity ratio at lysine P61978_K405: 231 sol; for isoTOP-ABPP ratio (R) at liganded lysine P61978_K405: sol, 231. The essentials: as §1

Regarding `O=C(CCc1cn(-c2ccccc2)nc1-c1ccccc1)Oc1c(F)c(F)c(F)c(F)c1F` [fragment 19, Pentafluorophenyl 3-(1,3-diphenyl-1H-pyrazol-4-yl)propanoate], the “R value (DMSO/fragment) for probe 1 labeling” value (from here on “R value (DMSO/fragment)”) in test [1] was determined as 1.0; in test [2], 20.0; in test [3] it was 1.3. Besides, the “blockade of probe 1 labeling of K100” value in test [2] is “fully blocking probe 1 labeling”.
Consider `O=C(Oc1c(F)c(F)c(F)c(F)c1F)C(c1ccccc1)c1ccccc1` [fragment 20, Pentafluorophenyl 2,2-diphenylacetate], for which the “R value (DMSO/fragment)” value came to 1.0 in test [1], 0.9 in test [2] and 1.0 in test [3].
In the case of `O=C(Oc1c(F)c(F)c(F)c(F)c1F)c1cc(C(F)(F)F)cc(C(F)(F)F)c1` [fragment 21, Pentafluorophenyl 3,5-bis(trifluoromethyl)benzoate], the “R value (DMSO/fragment)” value in test [1] amounted to 0.9; in test [2], 0.9; in test [3], 1.0.
On to `Cn1cc(CC(=O)Oc2c(F)c(F)c(F)c(F)c2F)c2ccccc21` [fragment 22, Pentafluorophenyl 2-(1-methyl-1H-indol-3-yl)acetate], for which the “R value (DMSO/fragment)” value stood at 1.0 in test [1] and 20.0 in test [2]. Besides, the “blockade of probe 1 labeling of K100” value in test [2] was “fully blocking probe 1 labeling”.
In the case of `COc1cc(CCC(=O)Oc2c(F)c(F)c(F)c(F)c2F)cc(OC)c1OC` [fragment 23, Pentafluorophenyl 3-(3,4,5-trimethoxyphenyl)propanoate], the “R value (DMSO/fragment)” value in test [1] is recorded as 0.9; in test [2], 1.8.
On to `O=C(Oc1c(F)c(F)c(F)c(F)c1F)C1CCN(C(=O)OCc2ccccc2)CC1` [fragment 24, 1-Benzyl 4-(pentafluorophenyl) piperidine-1,4-dicarboxylate], for which the “isoTOP-ABPP reactivity ratio at lysine P0CG30_K53” value in test [1] was determined as 1.0. For the same compound, in test [2], the “isoTOP-ABPP reactivity ratio at lysine Q9NVS9_K100” value is 0.9.
`O=C(Oc1c(F)c(F)c(F)c(F)c1F)c1ccc2ccccc2n1` [fragment 25, Pentafluorophenyl quinoline-2-carboxylate]: the “isoTOP-ABPP reactivity ratio at lysine P0CG30_K53” value in test [1] amounted to 1.0. Moreover, the “isoTOP-ABPP reactivity ratio at lysine Q9NVS9_K100” value in test [2] amounted to 1.0. The “isoTOP-ABPP reactivity ratio at lysine P61978_K405” value in test [3] was found to be 1.3.
Turning to `O=C(CCc1coc2cc(F)ccc2c1=O)Oc1c(F)c(F)c(F)c(F)c1F` [fragment 26, Pentafluorophenyl 3-(7-fluoro-4-oxo-4H-chromen-3-yl)propanoate], the “isoTOP-ABPP reactivity ratio at lysine P0CG30_K53” value in test [1] was 1.3. The “isoTOP-ABPP reactivity ratio at lysine Q9NVS9_K100” value in test [2] came to 1.4. The “isoTOP-ABPP reactivity ratio at lysine P61978_K405” value in test [3] was determined as 0.9.
Regarding `O=C(CN1C(=O)c2ccccc2C1=O)Oc1c(F)c(F)c(F)c(F)c1F` [fragment 27, Pentafluorophenyl 2-(1,3-dioxoisoindolin-2-yl)acetate], the “isoTOP-ABPP reactivity ratio at lysine P0CG30_K53” value in test [1] came to 0.9. Besides, in test [2], the “isoTOP-ABPP reactivity ratio at lysine Q9NVS9_K100” value turned out to be 1.0. Also, the “isoTOP-ABPP reactivity ratio at lysine P61978_K405” value in test [3] turned out to be 1.0.
As for `CCn1cc(C(=O)Oc2c(F)c(F)c(F)c(F)c2F)c(=O)c2ccc(C)nc21` [fragment 28, Pentafluorophenyl 1-ethyl-7-methyl-4-oxo-1,4-dihydro-1,8-naphthyridine-3-carboxylate], in test [1], the “isoTOP-ABPP reactivity ratio at lysine P0CG30_K53” value turned out to be 1.0. In addition, the “isoTOP-ABPP reactivity ratio at lysine Q9NVS9_K100” value in test [2] is 0.9.
In the case of `O=C(CCc1cn(-c2ccccc2)nc1-c1ccccc1)Oc1ccc([N+](=O)[O-])cc1[N+](=O)[O-]` [fragment 29, 2,4-Dinitrophenyl 3-(1,3-diphenyl-1H-pyrazol-4-yl)propanoate], the “isoTOP-ABPP reactivity ratio at lysine P0CG30_K53” value in test [1] was 0.7. Further, the “isoTOP-ABPP reactivity ratio at lysine Q9NVS9_K100” value in test [2] turned out to be 1.9. Moreover, in test [3], the “isoTOP-ABPP reactivity ratio at lysine P61978_K405” value is recorded as 20.0.
As to `O=C(Oc1ccc([N+](=O)[O-])cc1[N+](=O)[O-])C(c1ccccc1)c1ccccc1` [fragment 30, 2,4-Dinitrophenyl 2,2-diphenylacetate], the “isoTOP-ABPP reactivity ratio at lysine P0CG30_K53” value in test [1] is reported as 0.6. In test [2], the “isoTOP-ABPP reactivity ratio at lysine Q9NVS9_K100” value was 1.0. Further, the “isoTOP-ABPP reactivity ratio at lysine P61978_K405” value in test [3] is 0.9.
For `O=C(Oc1ccc([N+](=O)[O-])cc1[N+](=O)[O-])c1cc(C(F)(F)F)cc(C(F)(F)F)c1` [fragment 31, 2,4-Dinitrophenyl 3,5-bis(trifluoromethyl)benzoate], the “isoTOP-ABPP reactivity ratio at lysine P0CG30_K53” value in test [1] is given as 0.8. In addition, the “isoTOP-ABPP reactivity ratio at lysine Q9NVS9_K100” value in test [2] is 1.0.
With `Cn1cc(CC(=O)Oc2ccc([N+](=O)[O-])cc2[N+](=O)[O-])c2ccccc21` [fragment 32, 2,4-Dinitrophenyl 2-(1-methyl-1H-indol-3-yl)acetate], the “isoTOP-ABPP reactivity ratio at lysine P0CG30_K53” value in test [1] is recorded as 0.8. Moreover, the “isoTOP-ABPP reactivity ratio at lysine Q9NVS9_K100” value in test [2] was determined as 3.6. Further, the “isoTOP-ABPP reactivity ratio at lysine P61978_K405” value in test [3] is on record as 0.9.
`COc1cc(CCC(=O)Oc2ccc([N+](=O)[O-])cc2[N+](=O)[O-])cc(OC)c1OC` [fragment 33, 2,4-Dinitrophenyl 3-(3,4,5-trimethoxyphenyl)propanoate]: in test [1], the “isoTOP-ABPP reactivity ratio at lysine P0CG30_K53” value came out at 0.5. In addition, in test [2], the “isoTOP-ABPP reactivity ratio at lysine Q9NVS9_K100” value stood at 1.2.
On to `O=C(Oc1ccc([N+](=O)[O-])cc1[N+](=O)[O-])C1CCN(C(=O)OCc2ccccc2)CC1` [fragment 34, 1-Benzyl 4-(2,4-dinitrophenyl) piperidine-1,4-dicarboxylate], for which the “isoTOP-ABPP ratio (R) at liganded lysine P0CG30_K53” value in test [1] is reported as 0.5. Moreover, in test [2], the “isoTOP-ABPP ratio (R) at liganded lysine Q9NVS9_K100” value was found to be 0.9. In addition, the “isoTOP-ABPP ratio (R) at liganded lysine P61978_K405” value in test [3] stood at 1.4.
In the case of `O=C(Oc1ccc([N+](=O)[O-])cc1[N+](=O)[O-])c1ccc2ccccc2n1` [fragment 35, 2,4-Dinitrophenyl quinoline-2-carboxylate], the “isoTOP-ABPP ratio (R) at liganded lysine P0CG30_K53” value in test [1] worked out at 4.1. The “isoTOP-ABPP ratio (R) at liganded lysine Q9NVS9_K100” value in test [2] is recorded as 0.9. Also, the “isoTOP-ABPP ratio (R) at liganded lysine P61978_K405” value in test [3] was 0.9.
Take `O=C(CCc1coc2cc(F)ccc2c1=O)Oc1ccc([N+](=O)[O-])cc1[N+](=O)[O-]` [fragment 36, 2,4-Dinitrophenyl 3-(7-fluoro-4-oxo-4H-chromen-3-yl)propanoate]: the “isoTOP-ABPP ratio (R) at liganded lysine P0CG30_K53” value in test [1] is 0.5. Moreover, the “isoTOP-ABPP ratio (R) at liganded lysine Q9NVS9_K100” value in test [2] came to 1.0.
As to `O=C(Oc1ccc([N+](=O)[O-])cc1[N+](=O)[O-])c1ccc(-c2ccccc2)cc1` [fragment 37, 2,4-Dinitrophenyl [1,1′-biphenyl]-4-carboxylate], the “isoTOP-ABPP ratio (R) at liganded lysine P0CG30_K53” value in test [1] turned out to be 0.7. Further, in test [2], the “isoTOP-ABPP ratio (R) at liganded lysine Q9NVS9_K100” value is given as 0.9. Moreover, in test [3], the “isoTOP-ABPP ratio (R) at liganded lysine P61978_K405” value turned out to be 0.9.
Regarding `O=C(CC12CC3CC(CC(C3)C1)C2)Oc1ccc([N+](=O)[O-])cc1[N+](=O)[O-]` [fragment 38, 2,4-Dinitrophenyl 2-(adamantan-1-yl)acetate], the “isoTOP-ABPP ratio (R) at liganded lysine P0CG30_K53” value in test [1] is recorded as 0.8. In addition, the “isoTOP-ABPP ratio (R) at liganded lysine Q9NVS9_K100” value in test [2] amounted to 0.9. For the same compound, in test [3], the “isoTOP-ABPP ratio (R) at liganded lysine P61978_K405” value is 20.0.
For `O=C(Oc1ccc([N+](=O)[O-])cc1[N+](=O)[O-])c1ccc(Oc2ccccc2)cc1` [fragment 39, 2,4-Dinitrophenyl 4-phenoxybenzoate], the “isoTOP-ABPP ratio (R) at liganded lysine P0CG30_K53” value in test [1] worked out at 0.7. In test [2], the “isoTOP-ABPP ratio (R) at liganded lysine Q9NVS9_K100” value stood at 0.9. Further, in test [3], the “isoTOP-ABPP ratio (R) at liganded lysine P61978_K405” value came to 0.8.
As for `O=C(Oc1ccc([N+](=O)[O-])cc1[N+](=O)[O-])C(c1ccccc1)(c1ccccc1)c1ccccc1` [fragment 42, 2,4-Dinitrophenyl 2,2,2-triphenylacetate], the “isoTOP-ABPP ratio (R) at liganded lysine P0CG30_K53” value in test [1] was determined as 1.0. Also, the “isoTOP-ABPP ratio (R) at liganded lysine Q9NVS9_K100” value in test [2] amounted to 0.9.
In the case of `O=C(Oc1c(F)c(F)c(C(F)(F)F)c(F)c1F)c1cc(C(F)(F)F)cc(C(F)(F)F)c1` [fragment 47, 2,3,5,6-Tetrafluoro-4-(trifluoromethyl)phenyl 3,5-bis(trifluoromethyl)benzoate], in test [1], the “isoTOP-ABPP ratio, lysine P0CG30_K53” value came to 0.6. For the same compound, the “isoTOP-ABPP ratio, lysine Q9NVS9_K100” value in test [2] worked out at 0.9.
In the case of `O=C(Oc1c(F)c(F)cc(F)c1F)c1cc(C(F)(F)F)cc(C(F)(F)F)c1` [fragment 48, 2,3,5,6-Tetrafluorophenyl 3,5-bis(trifluoromethyl)benzoate], the “isoTOP-ABPP ratio, lysine P0CG30_K53” value in test [1] is listed as 0.9. In addition, the “isoTOP-ABPP ratio, lysine Q9NVS9_K100” value in test [2] amounted to 0.9.

These data come from patent US20210255193A1, “LYSINE REACTIVE PROBES AND USES THEREOF” (The Scripps Research Institute, priority 2017, published 2021).
